From patent US20020018788A1, “PREPARATION PROTECTING SKIN FROM MECHANICAL IRRITATION” (priority 1996, published 2002)

Key:
[1] = test system: mechanical skin irritation; test: Thermal conductivity of the skin (microcirculation), skin cut by scraping, group 1; type: in vivo, healthy female volunteers; conditions: for % Variation, treated area/untreated area 1 (microcirculation): 4% (weight/volume) in distilled water, mean ± standard error; for % Variation, treated area/untreated area 1 (microcirculation) / Mean values of thermal conductivity (K), treated area: n=6
Protocol: (§1) The effect of trimethylglycine on the skin was studied by measuring the thermal conductivity of the skin by a method described by A. Dittmar in Cutaneous investigation in health and disease. Non-invasive methods and instrumentation, ed. J. L. Lévêque, Marcel Dekker Inc., New York-Basel, 1989. The method correlates directly with microcirculation on the skin. Thermal conductivity (K) is measured from the skin with a specific Hematron® thermal sensor and transformed into an electric signal, which is recorded by a recorder. In thermal conductivity (ΔK), a significant level of variation is 0.1 mW/cm.°C.
(§2) The test was conducted on two test groups, each one of which comprised six healthy female volunteers. In the first test group (group 1), four cutaneous test areas were defined on the arm of each subject, and microcirculation was first measured for 30 minutes before the preparation was added. The skin was then cut by scraping in all the four areas, and onto the skin was pressed a filter paper into which a solution had been absorbed that contained 14 μl/cm^2 of 4% (weight/volume) trimethylglycine in distilled water, or only distilled water (placebo). Subsequently, microcirculation was measured for 60 minutes at the erythematous, damaged points on the skin, treated with the solution.
(§3) The thermal conductivity values measured on each volunteer subject are shown in table 1 (group 1) and table 2 (group 2). Tables 1 and 2 show the mean values (n=6) of thermal conductivity (K expressed as mW/cm .°C.) in the treated area, placebo area, and untreated areas at different instances of measuring. In tables 1 and 2, the treated area means an area treated with a preparation containing trimethylglycine; untreated area 1 is an untreated area that is symmetric with the area treated with the preparation containing trimethylglycine; the placebo area means an area treated with a placebo; and untreated area 2 is an untreated area that is symmetric with the area treated with the placebo.
(§4) Per /cent (%) variations between the treated area and untreated area 1, and the placebo area and untreated area 2 were calculated for each volunteer subject 30 and 60 min after application of the product. The variations were calculated using the formula [formula]

thermal skin irritation = test: Thermal conductivity of the skin (microcirculation), infrared irradiation, group 2; type: in vivo, healthy female volunteers
Protocol: as §1
In the second test group (group 2), the subjects' microcirculation was measured at the erythema in the same way as above, but the irritation was here caused by 30-minute infrared irradiation (IR Philips 250 S lamps, spectrum 700 to 2500 nm, power 250 W, light energy 70 mW/cm^2, irradiation area 14 cm^2) in the four cutaneous areas defined on the upper back.
as §3, §4

skin = test: Tolerance of the preparation by the subjects in both tests; type: in vivo, healthy female volunteers; conditions: topical 4% (weight/volume) preparation
Protocol: as §2, with “solution. In the second test group (group 2), the subjects' microcirculation was measured at the erythema in the same way as above, but the irritation was here caused by 30-minute infrared irradiation (IR Philips 250 S lamps, spectrum 700 to 2500 nm, power 250 W, light energy 70 mW/cm^2, irradiation area 14 cm^2) in the four cutaneous areas defined on the upper back.” for “solution.”

[2] = pure form; in water and in lower alcohols, such as methanol and ethanol; cited from earlier work

C[N+](C)(C)CC(=O)[O-] [trimethylglycine]
% Variation, treated area/untreated area 1 (microcirculation) ([1]; group 1, t30 min): -8.9±8.6% | % Variation, treated area/untreated area 1 (microcirculation) ([1]; group 1, t60 min): -15.0±8.8% | Effect against mechanical erythema as compared with the placebo ([1]; group 1, 4% (weight/volume) in water, effect detected 60 min after the application): effective against mechanical erythema | Mean values of thermal conductivity (K), treated area ([1]; t0, before application of product, arm skin): 3.82 ± 0.59 mW/cm · ° C. | Mean values of thermal conductivity (K), treated area ([1]; t30, 30 min after application of 4% (weight/volume) trimethylglycine in distilled water, 14 μl/cm^2, skin cut by scraping): 3.66 ± 0.69 mW/cm · ° C. | Mean values of thermal conductivity (K), treated area ([1]; t60, 60 min after application of 4% (weight/volume) trimethylglycine in distilled water, 14 μl/cm^2, skin cut by scraping): 3.42 ± 0.41 mW/cm · ° C. | % Variation, treated area/untreated area 1 (microcirculation) (thermal skin irritation; group 2, t30 min, 4% (weight/volume) in distilled water, mean ± standard error, n=6): 23.5±11.8% | Effect on thermal erythema (thermal skin irritation; group 2, preparation containing trimethylglycine): no effect on thermal erythema | Mean values of thermal conductivity (K), treated area (thermal skin irritation; t0, before application of product, upper back, n=6): 3.13 ± 0.30 mW/cm · ° C. | Mean values of thermal conductivity (K), treated area (thermal skin irritation; t30, 30 min after application of 4% (weight/volume) trimethylglycine in distilled water, 30-minute infrared irradiation, n=6): 3.85 ± 0.31 mW/cm · ° C. | Mean values of thermal conductivity (K), treated area (thermal skin irritation; t60, 60 min after application of 4% (weight/volume) trimethylglycine in distilled water, 30-minute infrared irradiation, n=6): 3.60 ± 0.38 mW/cm · ° C. | Tolerance / sensitivity of the subjects (skin): tolerated the trimethylglycine preparation well | Solubility [2]: readily soluble
